Reference: PubChem BioAssay (NCI)
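Protocol summary: plate cells (96-well), add compound at 5 concentrations, incubate 48 h, interpolate endpoints linearly. At the TGI there is no net growth.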

Assays:
Assay in all cases: NCI tumour cell line growth inhibition, 48 h
HT29 colon = system: HT29 colon
DMS 114 small cell lung = system: DMS 114 small cell lung
OVCAR-4 ovarian = system: OVCAR-4 ovarian
SN12K1 renal = system: SN12K1 renal
SNB-19 CNS = system: SNB-19 CNS
SN12C renal = system: SN12C renal
XF 498 CNS = system: XF 498 CNS
K-562 leukemia = system: K-562 leukemia
SK-MEL-28 melanoma = system: SK-MEL-28 melanoma
HCT-15 colon = system: HCT-15 colon
SK-MEL-5 melanoma = system: SK-MEL-5 melanoma
DMS 273 small cell lung = system: DMS 273 small cell lung
UO-31 renal = system: UO-31 renal
A498 renal = system: A498 renal
HOP-62 NSCLC = system: HOP-62 NSCLC
SW-620 colon = system: SW-620 colon
NCI-H522 lung = system: NCI-H522 lung
DLD-1 colon = system: DLD-1 colon
CAKI-1 renal = system: CAKI-1 renal
KM20L2 colon = system: KM20L2 colon
A549 NSCLC = system: A549 NSCLC
SNB-78 CNS = system: SNB-78 CNS
CCRF-CEM leukemia = system: CCRF-CEM leukemia
U251 CNS = system: U251 CNS
NCI-H460 lung = system: NCI-H460 lung
MCF7 breast = system: MCF7 breast
NCI-H226 lung = system: NCI-H226 lung
KM12 colon = system: KM12 colon
HOP-92 NSCLC = system: HOP-92 NSCLC
SF-268 CNS = system: SF-268 CNS
M19-MEL melanoma = system: M19-MEL melanoma
SF-539 CNS = system: SF-539 CNS
COLO 205 colon = system: COLO 205 colon
HCT-116 colon = system: HCT-116 colon
P388 leukemia = system: P388 leukemia
SK-OV-3 ovarian = system: SK-OV-3 ovarian
RPMI-8226 leukemia = system: RPMI-8226 leukemia
HL-60(TB) leukemia = system: HL-60(TB) leukemia
MALME-3M melanoma = system: MALME-3M melanoma
EKVX NSCLC = system: EKVX NSCLC
UACC-62 melanoma = system: UACC-62 melanoma
HOP-18 NSCLC = system: HOP-18 NSCLC
OVCAR-3 ovarian = system: OVCAR-3 ovarian
RXF 393 renal = system: RXF 393 renal
P388/ADR leukemia = system: P388/ADR leukemia
SF-295 CNS = system: SF-295 CNS
IGROV1 ovarian = system: IGROV1 ovarian
MOLT-4 leukemia = system: MOLT-4 leukemia
HCC-2998 colon = system: HCC-2998 colon
SK-MEL-2 melanoma = system: SK-MEL-2 melanoma
UACC-257 melanoma = system: UACC-257 melanoma
NCI-H23 lung = system: NCI-H23 lung
LOX IMVI melanoma = system: LOX IMVI melanoma
OVCAR-5 ovarian = system: OVCAR-5 ovarian
NCI/ADR-RES ovarian = system: NCI/ADR-RES ovarian
OVCAR-8 ovarian = system: OVCAR-8 ovarian
SNB-75 CNS = system: SNB-75 CNS

**Q.** How did the TGI (HT29 colon) turn out when `CN(C)CCNC(=O)c1cccc2c1C(=O)c1ccccc1C2=O` was run?
**A.** The TGI was greater than 86.6 µM.

**Q.** And the TGI (DMS 114 small cell lung)?
**A.** Its TGI is 32.8 µM.

**Q.** And the TGI (OVCAR-4 ovarian)?
**A.** The TGI was 88.8 µM.

**Q.** And the TGI (SN12K1 renal)?
**A.** Its TGI is greater than 100 µM.

**Q.** And the TGI (SNB-19 CNS)?
**A.** Its TGI is greater than 100 µM.

**Q.** What about the TGI (SN12C renal) of the same compound?
**A.** Its TGI is greater than 100 µM.

**Q.** What about the TGI (XF 498 CNS) of the same compound?
**A.** Its TGI is greater than 100 µM.

**Q.** And the TGI (K-562 leukemia)?
**A.** Its TGI is 54.5 µM.

**Q.** What about the TGI (SK-MEL-28 melanoma) of the same compound?
**A.** Its TGI is greater than 100 µM.

**Q.** And the TGI (HCT-15 colon)?
**A.** The TGI was greater than 84.2 µM.

**Q.** And the TGI (SK-MEL-5 melanoma)?
**A.** Its TGI is 40.2 µM.

**Q.** What about the TGI (DMS 273 small cell lung) of the same compound?
**A.** Its TGI is 56.6 µM.

**Q.** And the TGI (UO-31 renal)?
**A.** Its TGI is greater than 100 µM.

**Q.** And the TGI (A498 renal)?
**A.** The TGI was greater than 100 µM.

**Q.** What about the TGI (HOP-62 NSCLC) of the same compound?
**A.** The TGI was greater than 31.6 µM.

**Q.** What about the TGI (SW-620 colon) of the same compound?
**A.** Its TGI is greater than 91.3 µM.

**Q.** And the TGI (NCI-H522 lung)?
**A.** The TGI was 69.1 µM.

**Q.** And the TGI (DLD-1 colon)?
**A.** The TGI was greater than 77.6 µM.

**Q.** And the TGI (CAKI-1 renal)?
**A.** Its TGI is greater than 100 µM.

**Q.** What about the TGI (KM20L2 colon) of the same compound?
**A.** Its TGI is 77 µM.

**Q.** What about the TGI (A549 NSCLC) of the same compound?
**A.** Its TGI is greater than 100 µM.

**Q.** And the TGI (SNB-78 CNS)?
**A.** The TGI was greater than 86.6 µM.

**Q.** What about the TGI (CCRF-CEM leukemia) of the same compound?
**A.** Its TGI is 98.9 µM.

**Q.** What about the TGI (U251 CNS) of the same compound?
**A.** The TGI was greater than 100 µM.

**Q.** What about the TGI (NCI-H460 lung) of the same compound?
**A.** The TGI was 85.8 µM.

**Q.** And the TGI (MCF7 breast)?
**A.** The TGI was greater than 79 µM.

**Q.** What about the TGI (NCI-H226 lung) of the same compound?
**A.** The TGI was greater than 100 µM.

**Q.** What about the TGI (KM12 colon) of the same compound?
**A.** Its TGI is greater than 100 µM.

**Q.** And the TGI (HOP-92 NSCLC)?
**A.** The TGI was greater than 73.7 µM.

**Q.** And the TGI (SF-268 CNS)?
**A.** The TGI was greater than 100 µM.

**Q.** What about the TGI (M19-MEL melanoma) of the same compound?
**A.** The TGI was 41.7 µM.

**Q.** What about the TGI (SF-539 CNS) of the same compound?
**A.** Its TGI is greater than 100 µM.

**Q.** And the TGI (COLO 205 colon)?
**A.** Its TGI is 34.2 µM.

**Q.** What about the TGI (HCT-116 colon) of the same compound?
**A.** Its TGI is 66.5 µM.

**Q.** What about the TGI (P388 leukemia) of the same compound?
**A.** The TGI was 43.9 µM.

**Q.** What about the TGI (SK-OV-3 ovarian) of the same compound?
**A.** The TGI was greater than 100 µM.

**Q.** And the TGI (RPMI-8226 leukemia)?
**A.** Its TGI is greater than 100 µM.

**Q.** And the TGI (HL-60(TB) leukemia)?
**A.** The TGI was 57.8 µM.

**Q.** What about the TGI (MALME-3M melanoma) of the same compound?
**A.** The TGI was 28.1 µM.

**Q.** And the TGI (EKVX NSCLC)?
**A.** Its TGI is greater than 100 µM.

**Q.** And the TGI (UACC-62 melanoma)?
**A.** The TGI was 47.9 µM.

**Q.** What about the TGI (HOP-18 NSCLC) of the same compound?
**A.** Its TGI is greater than 100 µM.

**Q.** What about the TGI (OVCAR-3 ovarian) of the same compound?
**A.** Its TGI is 52.4 µM.

**Q.** And the TGI (RXF 393 renal)?
**A.** Its TGI is greater than 100 µM.

**Q.** And the TGI (P388/ADR leukemia)?
**A.** The TGI was 48.4 µM.

**Q.** What about the TGI (SF-295 CNS) of the same compound?
**A.** The TGI was greater than 100 µM.

**Q.** And the TGI (IGROV1 ovarian)?
**A.** The TGI was greater than 76.5 µM.

**Q.** What about the TGI (MOLT-4 leukemia) of the same compound?
**A.** Its TGI is greater than 71.7 µM.

**Q.** What about the TGI (HCC-2998 colon) of the same compound?
**A.** The TGI was greater than 91.6 µM.

**Q.** And the TGI (SK-MEL-2 melanoma)?
**A.** The TGI was greater than 90.5 µM.

**Q.** What about the TGI (UACC-257 melanoma) of the same compound?
**A.** Its TGI is 54.4 µM.

**Q.** What about the TGI (NCI-H23 lung) of the same compound?
**A.** The TGI was 50 µM.

**Q.** And the TGI (LOX IMVI melanoma)?
**A.** The TGI was greater than 75.1 µM.

**Q.** And the TGI (OVCAR-5 ovarian)?
**A.** The TGI was greater than 100 µM.

**Q.** And the TGI (NCI/ADR-RES ovarian)?
**A.** Its TGI is 75.5 µM.

**Q.** What about the TGI (OVCAR-8 ovarian) of the same compound?
**A.** The TGI was 88.3 µM.

**Q.** What about the TGI (SNB-75 CNS) of the same compound?
**A.** The TGI was greater than 100 µM.
